From the supplement of paper PMC10307832

Columns and labels:
Experiment in all cases: relative viability (nuclei count vs DMSO), 5 days (fraction); higher = more cells survive
DM3189 + Phenformin = compound: C1CN(CCN1)C2=CC=C(C=C2)C3=CN4C(=C(C=N4)C5=CC=NC6=CC=CC=C56)N=C3 [DM3189] + N=C(N)NC(=N)NCCc1ccccc1 [Phenformin] (partner 250 µM)
Procedure, shortened: (§1)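 Relative viability divides the nuclei count in treated wells by that in vehicle wells. Lung cancer cell lines were seeded in 1536-well plates, dosed by pin tool the next day, and fixed and stained after 5 days in one step with final 0.05% Triton X-100, 1% formaldehyde and 1 ug/ml Hoechst. Dosing was a single drug or a fixed anchor-drug dose plus five library-drug doses (not always all listed) in √10 steps, and values are medians of duplicate plates imaged at 4×.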

DM3189 + Pictilisib = compound: C1CN(CCN1)C2=CC=C(C=C2)C3=CN4C(=C(C=N4)C5=CC=NC6=CC=CC=C56)N=C3 [DM3189] + CS(=O)(=O)N1CCN(Cc2cc3nc(-c4cccc5[nH]ncc45)nc(N4CCOCC4)c3s2)CC1 [Pictilisib] (partner 1 µM)
Procedure, shortened: as §1

DM3189 + Luminespib = compound: C1CN(CCN1)C2=CC=C(C=C2)C3=CN4C(=C(C=N4)C5=CC=NC6=CC=CC=C56)N=C3 [DM3189] + CCNC(=O)c1noc(-c2cc(C(C)C)c(O)cc2O)c1-c1ccc(CN2CCOCC2)cc1 [Luminespib] (partner 0.01 µM)
Procedure, shortened: as §1

DM3189 + Crizotinib = compound: C1CN(CCN1)C2=CC=C(C=C2)C3=CN4C(=C(C=N4)C5=CC=NC6=CC=CC=C56)N=C3 [DM3189] + C[C@@H](Oc1cc(-c2cnn(C3CCNCC3)c2)cnc1N)c1c(Cl)ccc(F)c1Cl [Crizotinib] (partner 1 µM)
Procedure, shortened: as §1

DM3189 + Linsitinib = compound: C1CN(CCN1)C2=CC=C(C=C2)C3=CN4C(=C(C=N4)C5=CC=NC6=CC=CC=C56)N=C3 [DM3189] + C[C@]1(O)C[C@@H](c2nc(-c3ccc4ccc(-c5ccccc5)nc4c3)c3c(N)nccn32)C1 [Linsitinib] (partner 1 µM)
Procedure, shortened: as §1

Row | Cell Line | relative viability (DM3189 + Phenformin; first compound 0.08 µM) | relative viability (DM3189 + Phenformin; first compound 0.253 µM) | relative viability (DM3189 + Phenformin; first compound 0.8 µM) | relative viability (DM3189 + Phenformin; first compound 2.53 µM) | relative viability (DM3189 + Pictilisib; first compound 0.08 µM) | relative viability (DM3189 + Pictilisib; first compound 0.253 µM) | relative viability (DM3189 + Pictilisib; first compound 0.8 µM) | relative viability (DM3189 + Pictilisib; first compound 2.53 µM) | relative viability (DM3189 + Luminespib; first compound 0.08 µM) | relative viability (DM3189 + Luminespib; first compound 0.253 µM) | relative viability (DM3189 + Luminespib; first compound 0.8 µM) | relative viability (DM3189 + Luminespib; first compound 2.53 µM) | relative viability (DM3189 + Crizotinib; first compound 0.08 µM) | relative viability (DM3189 + Crizotinib; first compound 0.253 µM) | relative viability (DM3189 + Crizotinib; first compound 0.8 µM) | relative viability (DM3189 + Crizotinib; first compound 2.53 µM) | relative viability (DM3189 + Linsitinib; first compound 0.08 µM) | relative viability (DM3189 + Linsitinib; first compound 0.253 µM) | relative viability (DM3189 + Linsitinib; first compound 0.8 µM) | relative viability (DM3189 + Linsitinib; first compound 2.53 µM)
1 | NCI-H460 | 0.737 | 0.535 | 0.451 | 0.545 | 0.387 | 0.464 | 0.223 | 0.43 | 0.0319 | 0.0329 | 0.0354 | 0.0318 | 0.839 | 0.939 | 0.96 | 1.02 | 1.21 | 0.879 | 0.708 | 0.353
2 | NCI-H23 | 0.865 | 0.761 | 0.643 | 0.826 | 0.637 | 0.462 | 0.385 | 0.442 | 0.205 | 0.229 | 0.216 | 0.179 | 0.545 | 0.491 | 0.442 | 0.579 | 0.649 | 0.588 | 0.445 | 0.742
3 | NCI-H1975 | 0.455 | 0.38 | 0.4 | 0.329 | 0.42 | 0.309 | 0.269 | 0.201 | 0.302 | 0.254 | 0.162 | 0.263 | 1.1 | 0.928 | 0.819 | 0.647 | 1.18 | 0.955 | 0.929 | 0.727
4 | NCI-H650 | 0.518 | 0.497 | 0.47 | 0.489 | 0.976 | 0.888 | 0.741 | 0.845 | 0.761 | 0.729 | 0.701 | 0.767 | 0.754 | 0.575 | 0.594 | 0.661 | 1.12 | 0.84 | 0.659 | 0.763
5 | A-427 | 0.344 | 0.297 | 0.284 | 0.227 | 0.866 | 0.677 | 0.617 | 0.865 | 1.13 | 0.89 | 0.806 | 0.745 | 0.904 | 0.854 | 0.811 | 0.95 | 1.1 | 1.03 | 1.11 | 1.33
6 | LXF-289 | 0.529 | 0.491 | 0.501 | 0.527 | 0.834 | 0.773 | 0.775 | 0.935 | 0.758 | 0.583 | 0.61 | 0.805 | 0.796 | 0.793 | 0.781 | 0.947 | 0.977 | 0.939 | 0.908 | 1.06
7 | NCI-H838 | 0.775 | 0.507 | 0.471 | 0.385 | 0.521 | 0.35 | 0.317 | 0.397 | 0.309 | 0.322 | 0.242 | 0.246 | 0.752 | 0.815 | 0.531 | 0.732 | 0.969 | 0.918 | 0.716 | 0.87
8 | NCI-H1437 | 0.363 | 0.325 | 0.308 | 0.323 | 0.425 | 0.438 | 0.411 | 0.537 | 1.15 | 1.1 | 1.1 | 1.1 | 0.904 | 0.898 | 0.832 | 0.831 | 1.05 | 1.06 | 0.966 | 0.893
